≈ marks a conversion by molar mass, not a printed value.
Key:
Assay type in all cases: functional
Escherichia coli = experiment: Antimicrobial activity against Escherichia coli MTCC 443 after 24 hr by serial broth dilution method; conditions: MTCC 443, 24 h
Staphylococcus aureus = experiment: Antimicrobial activity against Staphylococcus aureus MTCC 96 after 24 hr by serial broth dilution method; conditions: MTCC 96, 24 h
Pseudomonas aeruginosa = experiment: Antimicrobial activity against Pseudomonas aeruginosa MTCC 1688 after 24 hr by serial broth dilution method; conditions: MTCC 1688, 24 h
Streptococcus pyogenes = experiment: Antimicrobial activity against Streptococcus pyogenes MTCC 442 after 24 hr by serial broth dilution method; conditions: MTCC 442, 24 h
Candida albicans = experiment: Antimicrobial activity against Candida albicans MTCC 227 after 72 hr by serial broth dilution method; conditions: MTCC 227, 72 h
Aspergillus clavatus = experiment: Antimicrobial activity against Aspergillus clavatus MTCC 1323 after 72 hr by serial broth dilution method; conditions: MTCC 1323, 72 h
Aspergillus niger = experiment: Antimicrobial activity against Aspergillus niger MTCC 282 after 72 hr by serial broth dilution method; conditions: MTCC 282, 72 h

| Structure (SMILES) | MIC (Escherichia coli) [µg/mL] | MIC (Staphylococcus aureus) [µg/mL] | MIC (Pseudomonas aeruginosa) [µg/mL] | MIC (Streptococcus pyogenes) [µg/mL] | MIC (Candida albicans) [µg/mL] | MIC (Aspergillus clavatus) [µg/mL] | MIC (Aspergillus niger) [µg/mL] |
| --- | --- | --- | --- | --- | --- | --- | --- |
| Cc1cccc(C2C=C(c3ccc(N)cc3)N=C(SCCCC#N)N2)c1 (configuration not stated) | 1000 (≈ 2760 µM) | 1000 (≈ 2760 µM) | 500 (≈ 1380 µM) | 500 (≈ 1380 µM) | 1000 (≈ 2760 µM) | 1000 (≈ 2760 µM) | 500 (≈ 1380 µM) |
| COc1ccc(C2C=C(c3ccc(N)cc3)N=C(SCCCC#N)N2)cc1 (configuration not stated) | 100 (≈ 264 µM) | 100 (≈ 264 µM) | 25 (≈ 66.1 µM) | 500 (≈ 1320 µM) | 500 (≈ 1320 µM) | 50 (≈ 132 µM) | 200 (≈ 528 µM) |
| COc1cc(C2C=C(c3ccc(N)cc3)N=C(SCCCC#N)N2)ccc1O (configuration not stated) | 25 (≈ 63.4 µM) | 250 (≈ 634 µM) | 100 (≈ 253 µM) | 100 (≈ 253 µM) | 100 (≈ 253 µM) | 100 (≈ 253 µM) | 100 (≈ 253 µM) |
| Nc1ccc(C2=CC(c3ccccc3)NC(S)=N2)cc1 (configuration not stated) | – | – | 250 (≈ 888 µM) | – | – | – | – |
| N#CCCCSC1=NC(c2ccc(N)cc2)=CC(c2ccccc2)N1 (configuration not stated) | 500 (≈ 1430 µM) | 500 (≈ 1430 µM) | 50 (≈ 143 µM) | 1000 (≈ 2870 µM) | 1000 (≈ 2870 µM) | 1000 (≈ 2870 µM) | 100 (≈ 287 µM) |
| CC1(C)S[C@@H]2[C@H](NC(=O)[C@H](N)c3ccccc3)C(=O)N2[C@H]1C(=O)O [AMPICILLIN] | 100 (≈ 286 µM) | 250 (≈ 715 µM) | 100 (≈ 286 µM) | 100 (≈ 286 µM) | – | – | – |
| COc1cc(C2C=C(c3ccc(N)cc3)N=C(S)N2)ccc1O (configuration not stated) | 250 (≈ 764 µM) | – | – | 250 (≈ 764 µM) | – | – | – |
| COc1ccc(C2C=C(c3ccc(N)cc3)N=C(S)N2)cc1 (configuration not stated) | – | – | 250 (≈ 803 µM) | – | – | – | – |
| N#CCCCSC1=NC(c2ccc(N)cc2)=CC(c2ccc([N+](=O)[O-])cc2)N1 (configuration not stated) | 500 (≈ 1270 µM) | 500 (≈ 1270 µM) | 100 (≈ 254 µM) | 500 (≈ 1270 µM) | 500 (≈ 1270 µM) | 200 (≈ 508 µM) | 50 (≈ 127 µM) |
| Cc1ccc(C2C=C(c3ccc(N)cc3)N=C(SCCCC#N)N2)cc1 (configuration not stated) | 100 (≈ 276 µM) | 50 (≈ 138 µM) | 500 (≈ 1380 µM) | 500 (≈ 1380 µM) | 1000 (≈ 2760 µM) | 100 (≈ 276 µM) | 50 (≈ 138 µM) |
| CN(C)c1ccc(C2C=C(c3ccc(N)cc3)N=C(SCCCC#N)N2)cc1 (configuration not stated) | 500 (≈ 1280 µM) | 250 (≈ 638 µM) | 250 (≈ 638 µM) | 1000 (≈ 2550 µM) | 1000 (≈ 2550 µM) | 1000 (≈ 2550 µM) | 500 (≈ 1280 µM) |
| N#CCCCSC1=NC(c2ccc(N)cc2)=CC(c2ccc(Cl)cc2)N1 (configuration not stated) | 100 (≈ 261 µM) | 500 (≈ 1310 µM) | 100 (≈ 261 µM) | 100 (≈ 261 µM) | 1000 (≈ 2610 µM) | 100 (≈ 261 µM) | 500 (≈ 1310 µM) |
| Nc1ccc(C2=CC(c3ccc(O)cc3)NC(S)=N2)cc1 (configuration not stated) | 250 (≈ 841 µM) | – | – | 250 (≈ 841 µM) | – | – | – |
| COC1=CC(=O)C[C@@H](C)[C@]12Oc1c(Cl)c(OC)cc(OC)c1C2=O [GRISEOFULVIN] | – | – | – | – | 500 (≈ 1420 µM) | 100 (≈ 283 µM) | 100 (≈ 283 µM) |
| Cc1ccccc1C1C=C(c2ccc(N)cc2)N=C(SCCCC#N)N1 (configuration not stated) | 500 (≈ 1380 µM) | 1000 (≈ 2760 µM) | 250 (≈ 690 µM) | 1000 (≈ 2760 µM) | 1000 (≈ 2760 µM) | 1000 (≈ 2760 µM) | 500 (≈ 1380 µM) |
| N#CCCCSC1=NC(c2ccc(N)cc2)=CC(c2ccccc2O)N1 (configuration not stated) | 50 (≈ 137 µM) | 250 (≈ 686 µM) | 250 (≈ 686 µM) | 100 (≈ 274 µM) | 200 (≈ 549 µM) | 500 (≈ 1370 µM) | 100 (≈ 274 µM) |
| N#CCCCSC1=NC(c2ccc(N)cc2)=CC(c2cccc(O)c2)N1 (configuration not stated) | 500 (≈ 1370 µM) | 250 (≈ 686 µM) | 500 (≈ 1370 µM) | 200 (≈ 549 µM) | 50 (≈ 137 µM) | 500 (≈ 1370 µM) | 500 (≈ 1370 µM) |
| N#CCCCSC1=NC(c2ccc(N)cc2)=CC(c2ccc(O)cc2)N1 (configuration not stated) | 25 (≈ 68.6 µM) | 500 (≈ 1370 µM) | 1000 (≈ 2740 µM) | 50 (≈ 137 µM) | 500 (≈ 1370 µM) | 200 (≈ 549 µM) | 500 (≈ 1370 µM) |
